Reference: patent US7166598B2, “Piperazine derivatives” (Astellas Pharma Inc., priority 1998, dated 2007)

Compound	melting point
COC[C@@H]1CN(CCN2CCN(C(=O)c3cc(C(F)(F)F)cc(C(F)(F)F)c3)[C@H](Cc3ccc(F)cc3)C2)CCO1.Cl.Cl	129 to 133 °C
Cl.Cn1cc(CN2CCN(C(=O)c3cc(C(F)(F)F)cc(C(F)(F)F)c3)[C@H](Cc3ccc(Cl)cc3)C2)cn1	210 to 245 °C (dec.)
COc1cc(C(=O)N2CCN(Cc3cccnc3)C[C@H]2Cc2ccc(Cl)cc2)cc(C(F)(F)F)c1.Cl.Cl	60 to 80 °C
COc1cc(C(=O)N2CCN(CCCc3cccnc3)C[C@H]2Cc2ccc(Cl)cc2)cc(C(F)(F)F)c1.Cl.Cl	60 to 100 °C
COc1cc(C(=O)N2CCN(Cc3cnn(C)c3)C[C@H]2Cc2ccc(F)cc2)cc(C(F)(F)F)c1.Cl	225.6 to 228.4 °C
COc1cc(C(=O)N2CCN(Cc3cccnc3)C[C@H]2Cc2ccc(F)cc2)cc(C(F)(F)F)c1.Cl.Cl	81.4 to 84.3 °C
Cl.Cn1cc(CN2CCN(C(=O)c3cc(C(F)(F)F)cc(C(F)(F)F)c3)[C@H](Cc3ccc(Cl)c(O)c3)C2)cn1	159 to 163 °C
COc1cc(C(=O)N2CCN(Cc3cccnc3)C[C@H]2Cc2ccc3ccccc3c2)cc(C(F)(F)F)c1.Cl.Cl	162 to 168 °C
COc1cc(C(=O)N2CCN(Cc3cnn(C)c3)C[C@H]2Cc2ccc(C(F)(F)F)cc2)cc(C(F)(F)F)c1.Cl	218 to 223 °C
Cl.Cl.O=C(c1cc(C(F)(F)F)cc(C(F)(F)F)c1)N1CCN(CCCc2cccnc2)C[C@H]1Cc1ccc(Cl)c(O)c1	65 to 70 °C
COc1cc(C[C@@H]2CN(Cc3cccnc3)CCN2C(=O)c2cc(C(F)(F)F)cc(C(F)(F)F)c2)ccc1F.Cl.Cl	143 to 147 °C
CNc1cc(C(=O)N2CCN(CCN3CCO[C@H](COC)C3)C[C@H]2Cc2ccc(C)c(O)c2)cc(C(F)(F)F)c1.Cl.Cl	159 to 170 °C
COC[C@@H]1CN(CCN2CCN(C(=O)c3cc(-n4cccc4)cc(C(F)(F)F)c3)[C@H](Cc3ccc(C)c(O)c3)C2)CCO1.Cl.Cl	159 to 170 °C
Cc1ccc(C[C@@H]2CN(CCN3[C@H](C)COC[C@@H]3C)CCN2C(=O)c2cc(C(F)(F)F)cc(C(F)(F)F)c2)cc1O.Cl.Cl	210 to 220 °C
COC[C@@H]1CN(CCCN2CCN(C(=O)c3cc(C(F)(F)F)cc(C(F)(F)F)c3)[C@H](Cc3ccc(C)c(O)c3)C2)CCO1.Cl.Cl	150 to 170 °C
Cc1ccc(C[C@@H]2CN(CCc3cccnc3)CCN2C(=O)c2cc(C(F)(F)F)cc(C(F)(F)F)c2)cc1O.Cl.Cl	90 to 120 °C
Cc1ccc(C[C@@H]2CN(Cc3ccc4ncccc4c3)CCN2C(=O)c2cc(C(F)(F)F)cc(C(F)(F)F)c2)cc1O.Cl.Cl	170 to 200 °C
COC[C@@H]1CN(CC#CCN2CCN(C(=O)c3cc(C(F)(F)F)cc(C(F)(F)F)c3)C(Cc3ccc(C)c(O)c3)C2)[C@@H](C)CO1.Cl.Cl (stereo partly shown)	110 to 135 °C
Cc1ccc(CC2CN(CCN3C[C@H]4C[C@H]3C(C)(C)O4)CCN2C(=O)c2cc(C(F)(F)F)cc(C(F)(F)F)c2)cc1O.Cl.Cl (stereo partly shown)	173 to 185 °C
COC[C@H]1CN(CCN2CCN(C(=O)c3cc(C(F)(F)F)cc(C(F)(F)F)c3)[C@H](Cc3ccc(C)c(O)c3)C2)CCO1.Cl.Cl	225 to 235 °C
C[C@@H]1CN(CCN2CCN(C(=O)c3cc([N+](=O)[O-])cc(C(F)(F)F)c3)[C@H](Cc3ccc(Cl)cc3)C2)C[C@H](C)O1.Cl.Cl	133.3 to 136.2 °C

Compound	melting point
C[C@@H]1CN(CCN2CCN(C(=O)c3cc(N(C)C)cc(C(F)(F)F)c3)[C@H](Cc3ccc(Cl)cc3)C2)C[C@H](C)O1.Cl.Cl	148.2 to 153.3 °C
C[C@@H]1CN(CCN2CCN(C(=O)c3cc(C(F)(F)F)cc(S(C)(=O)=O)c3)[C@H](Cc3ccc(Cl)cc3)C2)C[C@H](C)O1.Cl.Cl	138.4 to 142.5 °C
CS(=O)(=O)c1cc(C(=O)N2CCN(CCN3CCc4ncccc4C3)C[C@H]2Cc2ccc(Cl)cc2)cc(C(F)(F)F)c1.Cl.Cl.Cl	198 to 213 °C
CN(C)S(=O)(=O)c1cc(C(=O)N2CCN(CCN3CCc4ncccc4C3)C[C@H]2Cc2ccc(Cl)cc2)cc(C(F)(F)F)c1.Cl.Cl.Cl	209 to 226 °C
Cl.Cl.Cl.O=C(c1cc(-n2cccc2)cc(C(F)(F)F)c1)N1CCN(CCN2CCc3ncccc3C2)C[C@H]1Cc1ccc(Cl)cc1	184 to 191 °C
Cl.Cl.Cl.O=C(c1cc(F)cc(C(F)(F)F)c1)N1CCN(CCN2CCc3ncccc3C2)C[C@H]1Cc1ccc(Cl)cc1	127.3 to 130.9 °C
COC[C@@H]1CN(CCN2CCN(C(=O)c3cc(C(F)(F)F)cc(C(F)(F)F)c3)C(Cc3ccc(C)c(O)c3)C2)C(C)(C)CO1.Cl.Cl (stereo partly shown)	150 to 180 °C
Cc1ccc(C[C@@H]2CN(Cc3nc(N)no3)CCN2C(=O)c2cc(C(F)(F)F)cc(C(F)(F)F)c2)cc1O.Cl.Cl	160 to 170 °C
COc1cc(C[C@@H]2CN(CCN3CC4CCC(C3)O4)CCN2C(=O)c2cc(C(F)(F)F)cc(C(F)(F)F)c2)ccc1F.Cl.Cl	163 to 178 °C
CC1(C)CN(CCN2CCN(C(=O)c3cc(C(F)(F)F)cc(C(F)(F)F)c3)[C@H](Cc3ccc(C(F)(F)F)cc3)C2)CCO1.Cl.Cl	215 to 231 °C
COCC1(COC)CN(CCN2CCN(C(=O)c3cc(C(F)(F)F)cc(C(F)(F)F)c3)[C@H](Cc3ccc(C(F)(F)F)cc3)C2)CCO1.Cl.Cl	123 to 149 °C
Cl.Cl.O=C(c1cc(C(F)(F)F)cc(C(F)(F)F)c1)N1CCN(CCN2CC3CCC(C2)O3)C[C@H]1Cc1ccc(C(F)(F)F)cc1	232 to 250 °C
COC[C@@H]1C[C@@H](OC)CN1CCN1CCN(C(=O)c2cc(C(F)(F)F)cc(C(F)(F)F)c2)[C@H](Cc2ccc(F)c(OC)c2)C1.Cl.Cl	128 to 134 °C
COc1cc(C[C@@H]2CN(CCN3C[C@H](OC)[C@@H](OC)C3)CCN2C(=O)c2cc(C(F)(F)F)cc(C(F)(F)F)c2)ccc1F.Cl.Cl	112 to 120 °C
COC[C@@H]1CN(CCN2CCN(C(=O)c3cc(C(F)(F)F)cc(C(F)(F)F)c3)[C@H](Cc3ccc(OC)cc3)C2)CCO1.Cl.Cl	146 to 149 °C
CN(C)S(=O)(=O)c1cc(C(=O)N2CCN(CCN3CCc4ncccc4C3)C[C@H]2Cc2ccc(C(F)(F)F)cc2)cc(C(F)(F)F)c1.Cl.Cl.Cl	190 to 194 °C
COC[C@@H]1C[C@@H](OC)CN1CCN1CCN(C(=O)c2cc(C(F)(F)F)cc(C(F)(F)F)c2)[C@H](Cc2ccc(C(F)(F)F)cc2)C1.Cl.Cl	56.59 °C
COC[C@H]1CCC[C@@H](COC)N1CCN1CCN(C(=O)c2cc(C(F)(F)F)cc(C(F)(F)F)c2)[C@H](Cc2ccc(C(F)(F)F)cc2)C1.Cl.Cl	147 to 151 °C
COC[C@@H]1C[C@H](COC)CN(CCN2CCN(C(=O)c3cc(C(F)(F)F)cc(C(F)(F)F)c3)[C@H](Cc3ccc(C(F)(F)F)cc3)C2)C1.Cl.Cl	157 to 160 °C
C[C@@H]1CN(CCN2CCN(C(=O)c3cc(Cl)cc(C(F)(F)F)c3)[C@H](Cc3ccc(Cl)c(O)c3)C2)C[C@H](C)O1.Cl.Cl	196 to 199 °C
CSc1cc(C(=O)N2CCN(CCN3CCc4ncccc4C3)C[C@H]2Cc2ccc(C(F)(F)F)cc2)cc(C(F)(F)F)c1.Cl.Cl	190 to 210 °C

Compound	melting point
COc1cc(C[C@@H]2CN(CCN3C[C@@H](C)O[C@@H](C)C3)CCN2C(=O)c2cc(-c3ccncc3)cc(C(F)(F)F)c2)ccc1F.Cl.Cl.Cl	137.6 to 142.5 °C
COC[C@@H]1CN(CCN2CCN(C(=O)c3cc(F)cc(C(F)(F)F)c3)[C@H](Cc3ccc(Cl)cc3)C2)CCO1.Cl.Cl	199 to 204 °C
COC[C@@H]1CN(CCN2CCN(C(=O)c3cc(F)cc(C(F)(F)F)c3)[C@H](Cc3ccc(C(F)(F)F)cc3)C2)CCO1.Cl.Cl	173 to 176 °C
COC[C@@H]1CN(CCN2CCN(C(=O)c3cc(F)cc(C(F)(F)F)c3)[C@H](Cc3ccc(Cl)c(O)c3)C2)CCO1.Cl.Cl	176 to 178 °C
COc1cc(C(=O)N2CCN(CC#CCN3CCOCC3(C)C)C[C@H]2Cc2ccc(Cl)c(O)c2)cc(C(F)(F)F)c1.Cl.Cl	187 to 195 °C
COc1cc(C(=O)N2CCN(CCN3CCc4ncccc4C3)C[C@H]2Cc2ccc(Cl)c(O)c2)cc(C(F)(F)F)c1.Cl.Cl.Cl	225 to 240 °C (dec.)
COC[C@@H]1CN(CCN2CCN(C(=O)c3cc(C(F)(F)F)cc(C(F)(F)F)c3)[C@H](Cc3ccc(Cl)c(O)c3)C2)CCO1.Cl.Cl	160 to 169 °C
COc1cc(C[C@@H]2CN(CCN3CCC(F)(F)CC3)CCN2C(=O)c2cc(C(F)(F)F)cc(C(F)(F)F)c2)ccc1F.Cl.Cl	240 to 243 °C
COc1cc(C[C@@H]2CN(CCN3C[C@@H](C)O[C@@H](C)C3)CCN2C(=O)c2cc(C(F)(F)F)cc(C(F)(F)F)c2)ccc1C(F)(F)F.Cl.Cl	160 to 170 °C
COc1cc(C(=O)N2CCN(CCN3C[C@@H](C)O[C@@H](C)C3)C[C@H]2Cc2ccc(C(F)(F)F)c(OC)c2)cc(C(F)(F)F)c1.Cl.Cl	125 to 135 °C
COc1cc(C(=O)N2CCN(CCN3CCc4ncccc4C3)C[C@H]2Cc2ccc(C(F)(F)F)c(OC)c2)cc(C(F)(F)F)c1.Cl.Cl.Cl	190 to 200 °C
COC[C@@H]1CN(CCN2CCN(C(=O)c3cc(C(F)(F)F)cc(C(F)(F)F)c3)[C@H](Cc3ccc(Cl)cc3)C2)CCO1.Cl.Cl	90 to 120 °C
Cl.Cl.O=C(c1cc(C(F)(F)F)cc(C(F)(F)F)c1)N1CCN(CCN2CCC(F)(F)CC2)C[C@H]1Cc1ccc(Cl)cc1	250 to 255 °C
COC[C@@H]1CN(CCN2CCN(C(=O)c3cc(OC)cc(C(F)(F)F)c3)[C@H](Cc3ccc(Cl)cc3)C2)CCO1.Cl.Cl	70 to 90 °C
COc1cc(C(=O)N2CCN(CC#CCN3CCOCC3(C)C)C[C@H]2Cc2ccc(Cl)cc2)cc(C(F)(F)F)c1.Cl.Cl	110 to 140 °C
COc1cc(C(=O)N2CCN(CCN3CCC(F)(F)CC3)C[C@H]2Cc2ccc(Cl)cc2)cc(C(F)(F)F)c1.Cl.Cl	220 to 250 °C
Cl.Cl.O=C(c1cc(C(F)(F)F)cc(C(F)(F)F)c1)N1CCN(CCN2CCC(F)(F)CC2)C[C@H]1Cc1ccc(F)cc1	264 to 270.6 °C
COc1cc(C(=O)N2CCN(CCN3CCC(F)(F)CC3)C[C@H]2Cc2ccc(F)cc2)cc(C(F)(F)F)c1.Cl.Cl	258.4 to 261.4 °C
COc1cc(C(=O)N2CCN(CCN3CCc4ncccc4C3)C[C@H]2Cc2ccc(F)cc2)cc(C(F)(F)F)c1.Cl.Cl.Cl	148.7 to 152.3 °C
